# Reference: patent publication US20070049635A1 (priority 2003, published 2007)
# Read-outs that look alike come from different tables or passages of the source.
# What was measured:
# [1] = test system: Pyricularia oryzae; format: in vivo; conditions: wettable powder diluted to 200 ppm sprayed on rice pots (Koshihikari, 2-leaf stage); spore spray-inoculation; examined after 7 days
# [2] = test system: Pyricularia oryzae; format: in vivo; conditions: granules applied to water surface at 1.5 kg/10 ares; rice Koshihikari; inoculated 30 days after application; lesions examined after 1 week
compound,measurement,setting,value
"Cc1ccc(C(=O)NC(CNC(=O)OC(C(F)(F)F)C(F)(F)F)C(C)C)cc1 (stereo not shown) [Compound No. 8, N-(1,1,1,3,3,3-hexafluoro-2-propyloxycarbonyl)-N′-(4-methylbenzoyl)-3-methyl-1,2-butanediamine]",Effect (preventive value),[1],A (80% or more)
"Cc1ccc(C(=O)NC(CNC(=O)OC2CCCCC2Cl)C(C)C)cc1 (stereo not shown) [Compound No. 17, N-(2-chlorocyclohexyloxycarbonyl)-N′-(4-methylbenzoyl)-3-methyl-1,2-butanediamine]",Effect (preventive value),[1],A (80% or more)
"Cc1ccc(C(=O)NCC(NC(=O)Oc2ccc3ccccc3c2)C(C)C)cc1 (stereo not shown) [Formula (7), reference compound]",Effect (preventive value),[2],C (less than 50%)
same,Effect (preventive value),[1],C (less than 50%)
"CSCC(C)OC(=O)NC(CNC(=O)c1ccc(C)cc1)C(C)C (stereo not shown) [Formula (8), reference compound]",Effect (preventive value),[2],C (less than 50%)
same,Effect (preventive value),[1],C (less than 50%)
Cc1ccc(C(=O)NCC(NC(=O)OCCF)C(C)C)cc1 (stereo not shown) [compound 2],Effect (preventive value),[2],A (80% or more)
same,Effect (preventive value),[1],A (80% or more)
Cc1ccc(C(=O)NCC(NC(=O)OCCCl)C(C)C)cc1 (stereo not shown) [compound 3],Effect (preventive value),[1],A (80% or more)
Cc1ccc(C(=O)NCC(NC(=O)OCCBr)C(C)C)cc1 (stereo not shown) [compound 4],Effect (preventive value),[1],A (80% or more)
Cc1ccc(C(=O)NCC(NC(=O)OCCI)C(C)C)cc1 (stereo not shown) [compound 5],Effect (preventive value),[1],A (80% or more)
Cc1ccc(C(=O)NCC(NC(=O)OC(CF)CF)C(C)C)cc1 (stereo not shown) [compound 9],Effect (preventive value),[1],A (80% or more)
Cc1ccc(C(=O)NCC(NC(=O)OCCCCl)C(C)C)cc1 (stereo not shown) [compound 10],Effect (preventive value),[1],A (80% or more)
Cc1ccc(C(=O)NCC(NC(=O)OC(CBr)CBr)C(C)C)cc1 (stereo not shown) [compound 11],Effect (preventive value),[1],B (50% or more and less than 80%)
Cc1ccc(C(=O)NCC(NC(=O)OCC(F)(F)C(F)(F)C(F)(F)F)C(C)C)cc1 (stereo not shown) [compound 13],Effect (preventive value),[1],A (80% or more)
Cc1ccc(C(=O)NCC(NC(=O)OCCC(F)(F)C(F)(F)C(F)(F)C(F)(F)F)C(C)C)cc1 (stereo not shown) [compound 14],Effect (preventive value),[1],B (50% or more and less than 80%)
C=C(Cl)COC(=O)NC(CNC(=O)c1ccc(C)cc1)C(C)C (stereo not shown) [compound 15],Effect (preventive value),[2],A (80% or more)
same,Effect (preventive value),[1],A (80% or more)
Cc1ccc(C(=O)NCC(NC(=O)OC2CCCCC2F)C(C)C)cc1 (stereo not shown) [compound 16],Effect (preventive value),[1],A (80% or more)
Cc1ccc(C(=O)NCC(NC(=O)OCC(F)(F)F)C(C)(C)C)cc1 (stereo not shown) [compound 24],Effect (preventive value),[2],A (80% or more)
same,Effect (preventive value),[1],A (80% or more)
CCC(C)C(CNC(=O)c1ccc(C)cc1)NC(=O)OCC(F)(F)F (stereo not shown) [compound 25],Effect (preventive value),[2],A (80% or more)
same,Effect (preventive value),[1],A (80% or more)
CC(C)C(CNC(=O)c1cc2ccccc2o1)NC(=O)OCC(F)(F)F (stereo not shown) [compound 28],Effect (preventive value),[2],A (80% or more)
same,Effect (preventive value),[1],A (80% or more)
Cc1ccc(C(=O)NCC(NC(=O)OC(C)C(F)(F)F)C(C)C)cc1 (stereo not shown) [compound 30],Effect (preventive value),[2],A (80% or more)
same,Effect (preventive value),[1],A (80% or more)
CC(C)(C)C(CNC(=O)c1cc2ccccc2o1)NC(=O)OCC(F)(F)F (stereo not shown) [compound 31],Effect (preventive value),[2],A (80% or more)
same,Effect (preventive value),[1],A (80% or more)
CCC(C)C(CNC(=O)c1cc2ccccc2o1)NC(=O)OCC(F)(F)F (stereo not shown) [compound 32],Effect (preventive value),[1],A (80% or more)
CCC(C)C(CNC(=O)c1nc2ccccc2s1)NC(=O)OCC(F)(F)F (stereo not shown) [compound 33],Effect (preventive value),[1],A (80% or more)
CC(C)C(CNC(=O)c1cc2ccccc2s1)NC(=O)OCC(F)(F)F (stereo not shown) [compound 34],Effect (preventive value),[1],A (80% or more)
Cc1ccc(C(=O)NCC(NC(=O)OCC(F)(F)F)C2CCCC2)cc1 (stereo not shown) [compound 36],Effect (preventive value),[1],A (80% or more)
CC(C)C(CNC(=O)c1nc2ccc(F)cc2s1)NC(=O)OCC(F)(F)F (stereo not shown) [compound 37],Effect (preventive value),[1],A (80% or more)
CC(C)C(CNC(=O)c1nc2ccccc2s1)NC(=O)OCC(F)(F)F (stereo not shown) [compound 38],Effect (preventive value),[1],A (80% or more)
CCC(CC)C(CNC(=O)c1ccc(C)cc1)NC(=O)OCC(F)(F)F (stereo not shown) [compound 39],Effect (preventive value),[1],A (80% or more)
"N-(2,2,2-trichloroethyloxycarbonyl)-N′-(4-methylbenzoyl)-3-methyl-1,2-butanediamine [Compound No. 7]",Effect (preventive value),[1],A (80% or more)
"N-(2,2,2-trifluoroethyloxycarbonyl)-N′-(4-methylbenzoyl)-3-methyl-1,2-butanediamine [Compound No. 6]",Effect (preventive value),[2],A (80% or more)
same,Effect (preventive value),[1],A (80% or more)
"N-(chloromethyloxycarbonyl)-N′-(4-methylbenzoyl)-3-methyl-1,2-butanediamine [Compound No. 1]",Effect (preventive value),[2],A (80% or more)
